Article PMC6685790 (Nature structural & molecular biology, 2008)
Where a chain is given by its changes, count along the chain named. Blank lines part the entries; values can stand above or below the compound they belong to.

Columns and labels:
Format in all cases: cell-based
GlyR α1 WT = molecular target: T1, GlyR α1 WT (Homo sapiens, UniProt P23415); experiment: Whole-cell recording of wild-type GlyR α1 expressed in HEK cells
T1 sequence (P23415 29-457): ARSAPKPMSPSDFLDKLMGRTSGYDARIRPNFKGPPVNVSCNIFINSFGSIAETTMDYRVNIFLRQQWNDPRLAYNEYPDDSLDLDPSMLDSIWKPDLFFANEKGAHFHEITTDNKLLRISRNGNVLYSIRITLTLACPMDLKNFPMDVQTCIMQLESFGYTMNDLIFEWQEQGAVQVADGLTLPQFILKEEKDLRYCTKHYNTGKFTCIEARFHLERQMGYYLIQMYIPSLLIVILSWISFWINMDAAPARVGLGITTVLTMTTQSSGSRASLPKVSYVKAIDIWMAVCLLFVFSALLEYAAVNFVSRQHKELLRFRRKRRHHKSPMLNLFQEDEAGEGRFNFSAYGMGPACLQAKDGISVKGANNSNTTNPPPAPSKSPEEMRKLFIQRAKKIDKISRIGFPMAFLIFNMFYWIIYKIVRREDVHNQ

GlyR α1^L64A = molecular target: T2, GlyR α1^L64A (Homo sapiens, UniProt P23415, L92A); experiment: Whole-cell recording of substituted GlyR in HEK cells
T2 sequence (P23415 29-457 L92A): T1 sequence (P23415 29-457) with L64A

GlyR α1^F108A = molecular target: T3, GlyR α1^F108A (Homo sapiens, UniProt P23415, F136A); conditions: α1^F108A
T3 sequence (P23415 29-457 F136A): T1 sequence (P23415 29-457) with F108A

GlyR α1^F99A = molecular target: T4, GlyR α1^F99A (Homo sapiens, UniProt P23415, F127A); experiment: Whole-cell recording of substituted GlyR in HEK cells; conditions: α1^F99A
T4 sequence (P23415 29-457 F127A): T1 sequence (P23415 29-457) with F99A

GlyR α1^L118A = molecular target: T5, GlyR α1^L118A (Homo sapiens, UniProt P23415, L146A); experiment: as above
T5 sequence (P23415 29-457 L146A): T1 sequence (P23415 29-457) with L118A

GlyR α1^F100A = molecular target: T6, GlyR α1^F100A (Homo sapiens, UniProt P23415, F128A); experiment: as above
T6 sequence (P23415 29-457 F128A): T1 sequence (P23415 29-457) with F100A

[1] = direct activation without glycine
[2] = read-out: Zn^2+ Inhibition IC50, modulation of EC50 glycine currents
[3] = maximal Zn^2+ response as percentage of maximal glycine response in same cell
[4] = read-out: Zn^2+ Activation EC50, direct activation without glycine

Zn^2+ Activation EC50 (GlyR α1 WT; [1]): None
IC50 (GlyR α1 WT; [2]): 15 ± 2 µM
Zn^2+ Activation nH (GlyR α1^L64A; Hill slope): 1.1 ± 0.4
Zn^2+ Activation Relative efficacy (% Gly Imax) (GlyR α1^L64A; [3]): 10 ± 3 % Gly Imax
EC50 (GlyR α1^L64A; [4]): 1.5 ± 1.3 µM
IC50 (GlyR α1^L64A; [2]): 70 ± 9 µM
EC50 (GlyR α1^F108A; [4]): 2.3 ± 0.6 µM
IC50 (GlyR α1^F108A; [2]): > 1000 µM
Zn^2+ Activation nH (GlyR α1^F108A; Hill slope): 0.7 ± 0.1
Zn^2+ Activation Relative efficacy (% Gly Imax) (GlyR α1^F108A; [3]): 25 ± 6 % Gly Imax
EC50 (GlyR α1^F99A; [4]): 0.13 ± 0.03 µM
IC50 (GlyR α1^F99A; [2]): > 1000 µM
Zn^2+ Activation nH (GlyR α1^F99A; Hill slope): 1.1 ± 0.1
Zn^2+ Activation Relative efficacy (% Gly Imax) (GlyR α1^F99A; [3]): 86 ± 13 % Gly Imax
Zn^2+ Activation EC50 (GlyR α1^L118A; [1]): None
IC50 (GlyR α1^L118A; [2]): 10.3 ± 0.36 µM
Zn^2+ Activation nH (GlyR α1^F100A; Hill slope): 0.5 ± 0.1
Zn^2+ Activation Relative efficacy (% Gly Imax) (GlyR α1^F100A; [3]): 7 ± 4 % Gly Imax
EC50 (GlyR α1^F100A; [4]): 9.2 ± 0.6 µM
IC50 (GlyR α1^F100A; [2]): > 1000 µM
SMILES: [Zn+2] [Zn^2+]

Glycine Imax (GlyR α1 WT): 6.8 ± 0.5 nA
Glycine nH (GlyR α1 WT; Hill slope): 2.7 ± 0.2
Glycine Imax (GlyR α1^L64A): 5.6 ± 0.8 nA
Glycine nH (GlyR α1^L64A; Hill slope): 2 ± 0.6
Glycine Imax (GlyR α1^F108A): 4.5 ± 0.5 nA
Glycine nH (GlyR α1^F108A; Hill slope): 2.3 ± 0.1
Glycine Imax (GlyR α1^F99A): 3.9 ± 0.4 nA
Glycine nH (GlyR α1^F99A; Hill slope): 2.3 ± 0.3
Glycine Imax (GlyR α1^L118A): 6.3 ± 0.7 nA
Glycine nH (GlyR α1^L118A; Hill slope): 3.00 ± 0.2
Glycine Imax (GlyR α1^F100A): 4.5 ± 0.7 nA
Glycine nH (GlyR α1^F100A; Hill slope): 1.8 ± 0.2
SMILES: NCC(=O)O [Glycine, glycine]
